Patent publication US4518586A, “GRF Analogs III” (The Salk Institute for Biological Studies, priority 1983, dated 1985)
Square brackets hold non-standard residues; d marks the D form. Peptide text beside a SMILES is read from it. Nle = CCCC[C@H](N)C(=O)O

How the values were obtained:
[1] = tested on: cells of rat pituitary glands; assay: in vitro assay of growth hormone release from cultured rat pituitary cells, side-by-side with hpGRF(1-40)-OH standard; type: cell-based; conditions: for Comparison %: GH release at equimolar concentrations relative to synthetic hpGRF(1-40)-OH standard (100%), incubation 3 to 4 hours, ir GH by radioimmunoassay
Protocol: To determine the effectiveness of the various synthetic peptides to promote the release of growth hormone, in vitro assays are carried out using synthetic hpGRF(1-40)-OH as a standard in side-by-side comparison with equimolar concentrations of the various other analogs and fragments synthesized. Cultures are used which include cells of rat pituitary glands removed some three to five days previously. Cultures which are considered optimal for the secretion of growth hormone are used for the comparative testing, in the general manner described in Vale et al. Endocrinology, 91, 562-572 (1972) and as more particularly described in Vale et al. Endocrinology, (1983), in press. Incubation with the substance to be tested is carried out for 3 to 4 hours, and aliquots of the culture medium are removed and processed to measure their contents in immunoreactive GH(ir GH) by a well-characterized radioimmunoassay.

[2] = tested on: freely running normal male rats; assay: in vivo GH secretion after injection through indwelling catheter in FLA-63-pretreated rats; design: species or system rat; conditions: male rats pretreated with FLA-63
Protocol: In addition to the in vitro tests for secretion of growth hormone, in vivo experiments inject the synthetic peptides through an indwelling catheter into freely running normal male rats after pretreating them with FLA-63, a dopamine hydroxylase inhibitor that suppresses spontaneous GH secretion without affecting the response to exogenous GRF. Blood samples are taken through the same catheter immediately prior to and 5 and 20 minutes after injections. […] Dosages between about 100 nanograms and about 50 micrograms of these peptides per Kg. of body weight are considered to be effective in causing GH secretion.

Compound	Comparison % [1] [%]	duration compared with rGRF(1-29)-NH2 ([2]; GH levels in blood)	stimulation of the secretion of pituitary GH (GH levels in blood) ([2]; blood samples prior to and 5 and 20 minutes after injection, radioimmunoassay)	maximum effective concentration ([1]; in vitro GH secretion)
CCCC[C@H](NC(=O)[C@@H](NC(=O)[C@@H](CCC(=O)O)NC(=O)[C@H](Cc1c[nH]cn1)NC(=O)[C@H](CC(C)C)NC(=O)[C@H](CC(C)C)NC(=O)[C@H](CCCCN)NC(=O)[C@H](CCCNC(=N)N)NC(=O)[C@H](C)NC(=O)[C@H](Cc1ccc(O)cc1)NC(=O)[C@H](CC(C)C)NC(=O)[C@H](CCC(N)=O)NC(=O)CNC(=O)[C@H](CC(C)C)NC(=O)[C@@H](NC(=O)[C@H](CCCNC(=N)N)NC(=O)[C@H](CCCNC(=N)N)NC(=O)[C@H](Cc1ccc(O)cc1)NC(=O)[C@H](CO)NC(=O)[C@H](CO)NC(=O)[C@@H](NC(=O)[C@H](Cc1ccccc1)NC(=O)[C@@H](NC(=O)[C@H](C)NC(=O)[C@H](CC(=O)O)NC(=O)[C@H](C)NC(=O)[C@@H](N)Cc1c[nH]cn1)[C@@H](C)CC)[C@@H](C)O)[C@@H](C)CC)[C@@H](C)CC)C(=O)N[C@@H](CC(N)=O)C(=O)N[C@@H](CCCNC(=N)N)C(N)=O [[D-Glu^25, Nle^27]-rGRF(1-29)-NH2, H-His-Ala-Asp-Ala-Ile-Phe-Thr-Ser-Ser-Tyr-Arg-Arg-Ile-Leu-Gly-Gln-Leu-Tyr- Ala-Arg-Lys-Leu-Leu-His-D-Glu-Ile-Nle-Asn-Arg-NH2] (H-HADAIFTSSYRRILGQLYARKLLH[dE]I[Nle]NR-NH2)	125			
CCCC[C@H](NC(=O)[C@@H](NC(=O)[C@H](CCC(=O)O)NC(=O)[C@H](Cc1c[nH]cn1)NC(=O)[C@@H](CC(C)C)NC(=O)[C@H](CC(C)C)NC(=O)[C@H](CCCCN)NC(=O)[C@H](CCCNC(=N)N)NC(=O)[C@H](C)NC(=O)[C@H](Cc1ccc(O)cc1)NC(=O)[C@H](CC(C)C)NC(=O)[C@H](CCC(N)=O)NC(=O)CNC(=O)[C@H](CC(C)C)NC(=O)[C@@H](NC(=O)[C@H](CCCNC(=N)N)NC(=O)[C@H](CCCNC(=N)N)NC(=O)[C@H](Cc1ccc(O)cc1)NC(=O)[C@H](CO)NC(=O)[C@H](CO)NC(=O)[C@@H](NC(=O)[C@H](Cc1ccccc1)NC(=O)[C@@H](NC(=O)[C@H](C)NC(=O)[C@H](CC(=O)O)NC(=O)[C@H](C)NC(=O)[C@@H](N)Cc1c[nH]cn1)[C@@H](C)CC)[C@@H](C)O)[C@@H](C)CC)[C@@H](C)CC)C(=O)N[C@@H](CC(N)=O)C(=O)N[C@@H](CCCNC(=N)N)C(N)=O [[D-Leu^23, Nle^27]-rGRF(1-29)-NH2, H-His-Ala-Asp-Ala-Ile-Phe-Thr-Ser-Ser-Tyr-Arg-Arg-Ile-Leu-Gly-Gln-Leu-Tyr- Ala-Arg-Lys-Leu-D-Leu-His-Glu-Ile-Nle-Asn-Arg-NH2] (H-HADAIFTSSYRRILGQLYARKL[dL]HEI[Nle]NR-NH2)	160	substantially longer duration	powerful stimulators of the secretion of pituitary GH	
[D-Leu^23, Nle^27 ]-hpGRF(1-29)-NH2				about 1 nanomolar
